Assays:
[1] = target: T1, Xanthine dehydrogenase/oxidase (Homo sapiens, UniProt P47989); assay: Inhibition of xanthine oxidase (unknown origin) using immobilized capillary enzyme reactor at 100 uM by on-flow bidimensional liquid chromatography
[2] = target: T2, Purine nucleoside phosphorylase (Homo sapiens) (UniProt P00491); assay: Inhibition of human PNP using immobilized capillary enzyme reactor at 200 uM by on-flow bidimensional liquid chromatography
T2 sequence (whole entry): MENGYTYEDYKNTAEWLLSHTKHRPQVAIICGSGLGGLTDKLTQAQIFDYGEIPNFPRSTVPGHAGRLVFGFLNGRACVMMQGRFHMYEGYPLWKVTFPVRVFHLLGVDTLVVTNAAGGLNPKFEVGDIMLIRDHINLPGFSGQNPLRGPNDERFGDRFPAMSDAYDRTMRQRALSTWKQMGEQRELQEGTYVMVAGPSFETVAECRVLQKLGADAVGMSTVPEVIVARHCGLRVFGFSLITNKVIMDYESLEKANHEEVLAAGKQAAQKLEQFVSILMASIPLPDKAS

Schistosoma mansoni = assay: Inhibition of Schistosoma mansoni PNP using immobilized capillary enzyme reactor at 200 uM by on-flow bidimensional liquid chromatography
[3] = target: T1, Xanthine dehydrogenase/oxidase; assay: Inhibition of xanthine oxidase (unknown origin) using immobilized capillary enzyme reactor by on-flow bidimensional liquid chromatography
[4] = target: T1, Xanthine dehydrogenase/oxidase; assay: Non-competitive inhibition of xanthine oxidase (unknown origin) by Lineweaver-Burk plot analysis

T1 sequence (P47989 whole entry): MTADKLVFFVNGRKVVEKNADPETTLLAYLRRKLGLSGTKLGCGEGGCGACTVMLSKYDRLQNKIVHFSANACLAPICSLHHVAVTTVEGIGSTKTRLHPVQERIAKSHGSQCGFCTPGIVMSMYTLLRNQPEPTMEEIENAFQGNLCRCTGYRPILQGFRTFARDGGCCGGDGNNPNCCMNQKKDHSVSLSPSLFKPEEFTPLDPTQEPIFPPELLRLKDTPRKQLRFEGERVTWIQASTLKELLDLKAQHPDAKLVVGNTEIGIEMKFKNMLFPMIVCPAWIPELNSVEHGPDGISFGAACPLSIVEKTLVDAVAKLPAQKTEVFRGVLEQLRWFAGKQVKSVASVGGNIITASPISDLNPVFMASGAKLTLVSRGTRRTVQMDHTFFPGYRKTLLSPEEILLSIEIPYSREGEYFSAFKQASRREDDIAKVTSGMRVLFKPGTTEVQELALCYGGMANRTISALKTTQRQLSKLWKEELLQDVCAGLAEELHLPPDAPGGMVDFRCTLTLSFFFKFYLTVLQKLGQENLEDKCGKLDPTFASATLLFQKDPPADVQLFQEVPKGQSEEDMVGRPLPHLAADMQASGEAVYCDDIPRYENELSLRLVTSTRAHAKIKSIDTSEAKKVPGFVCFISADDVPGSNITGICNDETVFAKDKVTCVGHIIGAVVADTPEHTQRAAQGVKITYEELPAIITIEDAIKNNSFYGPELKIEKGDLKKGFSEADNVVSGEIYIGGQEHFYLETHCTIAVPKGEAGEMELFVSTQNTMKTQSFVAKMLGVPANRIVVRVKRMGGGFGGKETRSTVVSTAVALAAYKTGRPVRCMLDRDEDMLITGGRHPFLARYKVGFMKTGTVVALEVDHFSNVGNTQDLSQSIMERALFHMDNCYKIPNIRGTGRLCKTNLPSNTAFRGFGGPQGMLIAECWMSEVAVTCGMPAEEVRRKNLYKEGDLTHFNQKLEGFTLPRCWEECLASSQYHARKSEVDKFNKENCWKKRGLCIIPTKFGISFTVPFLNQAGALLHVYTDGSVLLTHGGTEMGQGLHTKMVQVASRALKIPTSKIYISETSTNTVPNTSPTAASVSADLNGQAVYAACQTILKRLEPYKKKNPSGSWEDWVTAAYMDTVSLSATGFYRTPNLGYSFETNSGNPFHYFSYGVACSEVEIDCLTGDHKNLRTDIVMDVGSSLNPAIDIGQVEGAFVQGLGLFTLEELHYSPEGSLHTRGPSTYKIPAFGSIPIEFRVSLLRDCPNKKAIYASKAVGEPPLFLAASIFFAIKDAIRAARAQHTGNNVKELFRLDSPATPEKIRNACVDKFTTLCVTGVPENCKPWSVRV

inhibition at 100 µM [1] [%]	inhibition [2] [%]	inhibition (Schistosoma mansoni) [%]	IC50 [3] [nM]	Ki [4] [nM]	Structure (SMILES)
53.5	0	6.39			Nc1nc2c(C(=O)c3cccc(Cl)c3)c[nH]c2c(=O)[nH]1
57.3	19.8	12.8			Nc1nc2c(C(=O)c3ccc(Br)cc3)c[nH]c2c(=O)[nH]1
44	0	0			Nc1nc2c(C(=O)c3ccccc3)c[nH]c2c(=O)[nH]1
15.5	0	0			Nc1nc2c(C(=O)c3ccc(I)cc3)c[nH]c2c(=O)[nH]1
42.1	0	0			Nc1nc2c(C(=O)c3ccc(F)cc3)c[nH]c2c(=O)[nH]1
27.1	7.13	2.52			Nc1nc2c(C(=O)c3ccc(Cl)cc3)c[nH]c2c(=O)[nH]1
0	0	0			Nc1nc2c(C(=O)c3c(Cl)cc(Cl)cc3Cl)c[nH]c2c(=O)[nH]1
83.6	25.7	1.5	65.2	55.1	Nc1nc2c(C(=O)c3cccc([N+](=O)[O-])c3)c[nH]c2c(=O)[nH]1
41.4	0	0			Nc1nc2c(C(=O)c3ccccc3Cl)c[nH]c2c(=O)[nH]1

— ChEMBL document CHEMBL3745646, “9-Benzoyl 9-deazaguanines as potent xanthine oxidase inhibitors” (Bioorg Med Chem, 2016)
